Assay [1] has as its target T1, D(3) dopamine receptor (Homo sapiens, UniProt P35462). Put plainly: Agonist activity at dopamine D3 receptor in human U2OS-D3 cells assessed as EA-tagged beta-arrestin translocation after 1.5 hrs by luminescence based beta-galactosidase assay.
The target of assay [2] is T1, D(3) dopamine receptor. Put plainly: Displacement of [3H]-N-methylspiperone from human dopamine D3 receptor expressed in HEK293 cells after 30 mins by scintillation counting. Background: Loss of bound radioactivity is the signal in a displacement assay; it reports binding, not function.
For assay [3], the target named is D(2) dopamine receptor (Homo sapiens, UniProt P14416). Put plainly: Displacement of [3H]-N-methylspiperone from human dopamine D2long receptor expressed in HEK293 cells after 30 mins by scintillation counting.
Sequence of D(2) dopamine receptor (P14416 whole entry): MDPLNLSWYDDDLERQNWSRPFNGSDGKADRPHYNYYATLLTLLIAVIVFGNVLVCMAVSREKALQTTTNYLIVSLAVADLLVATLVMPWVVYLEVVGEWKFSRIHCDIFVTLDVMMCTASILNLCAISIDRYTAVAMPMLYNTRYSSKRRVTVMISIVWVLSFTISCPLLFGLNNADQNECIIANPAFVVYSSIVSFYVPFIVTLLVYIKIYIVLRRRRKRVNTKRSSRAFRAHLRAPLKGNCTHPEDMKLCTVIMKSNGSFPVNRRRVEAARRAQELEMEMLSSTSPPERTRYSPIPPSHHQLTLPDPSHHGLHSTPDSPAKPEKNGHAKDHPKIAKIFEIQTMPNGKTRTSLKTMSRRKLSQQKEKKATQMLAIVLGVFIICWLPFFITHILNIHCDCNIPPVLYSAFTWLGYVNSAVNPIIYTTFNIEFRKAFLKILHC

Consider one compound from BindingDB's records for doi:10.1016/j.bmc.2012.08.058 (Purdue University, 2012).

pEC50, pKi: −log10 of the molar value.

T1 sequence (P35462 as listed by the source): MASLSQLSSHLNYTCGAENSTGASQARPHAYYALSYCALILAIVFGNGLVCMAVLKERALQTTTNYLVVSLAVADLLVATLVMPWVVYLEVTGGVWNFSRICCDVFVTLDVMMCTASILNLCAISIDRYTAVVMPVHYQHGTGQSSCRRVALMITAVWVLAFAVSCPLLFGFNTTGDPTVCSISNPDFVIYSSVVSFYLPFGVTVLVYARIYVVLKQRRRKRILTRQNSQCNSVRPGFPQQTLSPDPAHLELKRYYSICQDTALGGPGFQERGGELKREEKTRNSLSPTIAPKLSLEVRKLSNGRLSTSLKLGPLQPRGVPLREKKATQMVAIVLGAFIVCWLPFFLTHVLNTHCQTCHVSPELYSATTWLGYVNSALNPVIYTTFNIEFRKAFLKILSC

Regarding `CCCN1C[C@H](c2ccc(O)cc2)C[C@@H]2c3cc(O)c(O)cc3CC[C@H]21`, the negative logarithm of the EC50 (pEC50) (as a rule, the EC50 on a negative log10 scale, so that one unit is a factor of ten) in assay [1] is 7.34. Moreover, the pKi (as a rule, the negative decadic logarithm of the Ki, by convention in mol/L) is 8.96 in assay [2] and 6.80 in assay [3].
